# Experimental data: patent publication US7855228B2, “Antibiotics targeting MreB” (The Board of Trustees of the Leland Stamford Junior …, priority 2005, dated 2010)
# Where two headings read alike, the source gives them in different places.
# Key:
# [1] = system: E. coli K-12 strains (ponB, mreB alleles); assay: MICs of mecillinam and A22 for E. coli K-12 strains; type: cell-based; conditions: for MIC: Escherichia coli
# Experimental: Determination of MIC Minimal inhibitory concentrations (MICs) were determined using a standard 2-fold serial dilution format on L agar plates. Ten microliters of stationary culture diluted in 0.85% NaCl to 10^6 cells/ml were spotted on per plate. […] MICs were also determined on Mueller Hinton agar plates (0.2% beef extract, 1.75% acid digest of casein, 0.15% soluble starch, 1.5% agar, pH 7.3).
# E. coli cells = assay: Cell lysis; type: cell-based
# Description: To facilitate the isolation of A22-resistant mutants a PBP 1B-defective (ponB^−) mutant strain, JST975, which forms a clear growth inhibitory zone upon A22 treatment, was selected as the parent strain in our screen. […] This correlates well with the increased sensitivity of mreB mutant strains to β-lactam antibiotics. In future screens for antibacterial agents derived from A22, it will be important to consider that the antibacterial effect of A22 on wild-type E. coli cells may be enhanced by simultaneous treatment with sub-lethal concentrations of β-lactam antibiotics.
# MreB-GFP fusion protein = target: T1, MreB-GFP fusion protein (Escherichia coli, UniProt P0A9X4); assay: MreB helical structures in vivo (MreB-GFP); type: cell-based, E. coli; conditions: 10 μg/ml
# T1 construct: expressed in transfected cells; host or cells: E. coli JM109 carrying pMreB1-GFP (native mreB promoter)
# T1 sequence (P0A9X4 whole entry, the tested form may be a part): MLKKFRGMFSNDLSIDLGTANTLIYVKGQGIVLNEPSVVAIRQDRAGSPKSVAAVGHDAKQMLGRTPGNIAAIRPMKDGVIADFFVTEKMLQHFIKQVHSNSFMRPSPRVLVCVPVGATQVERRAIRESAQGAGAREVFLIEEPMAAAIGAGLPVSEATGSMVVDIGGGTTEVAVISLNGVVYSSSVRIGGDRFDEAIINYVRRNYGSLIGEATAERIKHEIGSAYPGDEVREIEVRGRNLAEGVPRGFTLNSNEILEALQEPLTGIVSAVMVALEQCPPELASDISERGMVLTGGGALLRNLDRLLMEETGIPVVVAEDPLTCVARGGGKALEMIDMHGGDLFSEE
# Experimental: FIG. 11. In vivo effects of A22. Exponentially growing JM109/pMreB1-GFP cells were treated with 10 μg/ml of A22, and changes in cell shape and GFP fluorescence were observed. (a, b) no treatment; (c, d) 30 min after A22 treatment; (e, f) 60 min after A22 treatment; (g, h) 120 min after A22 treatment.
# It was recently shown that the MreB forms helical structures in E. coli as well as B. subtilis. […] In rounded cells, MreB-GFP appeared as discrete dots located close to the cell surface (FIGS. 11e-11h), which may be the result of aggregation of MreB-GFP protein de-polymerized by A22.
# Construction of a mreB-gfp fusion plasmid A DNA fragment encoding the wild-type mreB gene was PCR-amplified from pMreB1 with primers (SEQ ID NO:5) 5′-[…]-3′ and (SEQ ID NO:6) 5′-[…]-3′. After cutting with Xba I and Nhe I, the PCR-generated DNA fragments were ligated to an XbaI-NheI-cut gfp vector pQIB-T7-GFP (Qbiogene Inc., Irvine, Calif., USA), resulting in an mreB-gfp translational fusion. From the resulting plasmid, an Aor51HI-HindIII fragment encoding the C-terminal portion of MreB fused with GFP was isolated and used to replace the Aor51HI-HindIII fragment of pMreB1, resulting in a plasmid pMreB1-GFP that expresses the MreB-GFP fusion protein from the native mreB promoter. […]
# E. coli MG1655 = assay: Determination of minimum inhibitory concentration (MIC); type: cell-based; conditions: Escherichia coli, read-out: MIC E. coli
# Outline: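 Two-fold serial agar dilution on L agar and also on Mueller Hinton agar (pH 7.3); 10 µl of stationary-phase culture diluted in 0.85% NaCl to 10^6 cells/ml spotted per plate. MIC taken as lowest concentration inhibiting growth.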
smiles,measurement,setting,value
"N=C(N)SCc1ccc(Cl)c(Cl)c1 [Compound 1, S-(3,4-dichlorobenzyl)isothiourea]",MIC,"[1]; read-out: MICs, strain JA221 (ponB −, mreB221)",100 µg/mL
same,MIC,"[1]; read-out: MICs, strain JE1011 (ponB +, mreB +)",6.25 µg/mL
same,MIC,"[1]; read-out: MICs, strain JM109/pMW218 (ponB +, mreB +/−)",6.25 µg/mL
same,MIC,"[1]; read-out: MICs, strain JM109/pMreB1 (ponB +, mreB +/+)",25 µg/mL
same,MIC,"[1]; read-out: MICs, strain JM109/pMreB221 (ponB +, mreB +/mreB221)",100 µg/mL
same,MIC,"[1]; read-out: MICs, strain JST975 (ponB −, mreB +)",1.6 µg/mL
same,MIC,"[1]; read-out: MICs, strain JSTA220 (ponB −, mreB +)",3.12 µg/mL
same,MIC,"[1]; read-out: MICs, strain JSTA221 (ponB −, mreB221)",100 µg/mL
same,MIC,"[1]; read-out: MICs, strain WA220 (ponB +, mreB +)",6.25 µg/mL
same,MIC,"[1]; read-out: MICs, strain WA221 (ponB +, mreB221)",> 100 µg/mL
same,MICs,"[1]; strain JST975 (ponB −, mreB +), listed as A22",3.125 µg/mL
same,Lysis of E. coli cells in the absence of PBP 1B,E. coli cells; JST975 liquid culture,induces cell lysis
same,Lysis of wild-type E. coli cells,E. coli cells; wild-type,does not lyse
same,MreB-GFP dots and bands (helical structures),"MreB-GFP fusion protein; 30-minute treatment, JM109 cells",fluorescent dots and bands disappeared
same,Cell shape of MreB-GFP expressing JM109 cells,MreB-GFP fusion protein; after 120 minutes,almost spherical
same,MIC,"E. coli MG1655; MG1655, Example 2, methods as in Example 1",3.13 µg/mL
same,MIC,"E. coli MG1655; MG1655, Table 1, E. coli MG1655",3.13 µg/mL
